# According to the METLIN SMRT retention time set (Domingo-Almenara et al. 2019):
# Test: gradient 5% acetonitrile 3 min, to 50% in 2 min, to 85% in 15 min, held 3 min, 100 µL/min
# Settings: column: Zorbax Extend-C18 2.1 x 50 mm; eluents: water / acetonitrile, 0.1% formic acid
# Summary of the method: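 The system's dead and dwell volumes were 40 μL and 900 μL, with a Zorbax Extend-C18 column (2.1 × 50 mm, 1.8 μm) run at 100 μL/min in water and acetonitrile containing 0.1% formic acid each. Pure standards were analyzed in mixtures of ~100 molecules by HPLC–quadrupole time-of-flight mass spectrometry in positive and negative ionization mode. Retention time was assigned from computationally picked, manually inspected adduct peaks.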
row,Structure (SMILES),RP-LC retention time [s]
1,O=C1OC(Cc2ccccc2)C(c2ccccc2)C1=O (stereo not given),976
2,CCOc1ccc(NC2=NS(=O)(=O)C(c3ccc(OC)cc3)=C2C)cc1,940
3,Cc1ccc(CS(=O)(=O)N2CCC(C3CCNC3)CC2)cc1C (stereo not given),666
4,Cn1nnc2c(Nc3ccc(Br)cc3F)ncnc21,761
5,O=C1CCCCC(CNC(=O)c2cnccn2)N1 (stereo not given),577
6,Cc1noc2ncn(CC(=O)Nc3c(F)c(F)cc(F)c3F)c(=O)c12,759
7,CCC(=O)NCc1nc2c(n1CC)CN(C(=O)c1ccc(C(F)(F)F)s1)CC2,579
8,CCn1nc(C)c(CCNC(=O)Nc2ccccc2C(=O)OC)c1C,646
9,COc1cc(NC(=O)C2CCN(S(=O)(=O)c3ccc4c(c3)NC(=O)C(C)O4)CC2)cc(OC)c1 (stereo not given),811
10,COC(=O)Nc1ccc2c(c1)C(=O)N(C)CCO2,587
11,CC(C)Oc1ccc(NC(=O)C2CCN(S(C)(=O)=O)c3ccccc3O2)cc1 (stereo not given),935
12,O=C(NCC(O)c1ccsc1)c1ccc2c(c1)OCO2 (stereo not given),652
13,CCC(=O)N1CCc2cc(C(=O)NC(C)C)ccc21,685
14,O=S(=O)(Cc1cccc(F)c1)NCC1CCN(Cc2ccsc2)CC1,578
15,CCc1ccc(-n2ncc3c(=O)n(Cc4nc(-c5cc(OC)c(OC)c(OC)c5)no4)cnc32)cc1,1080
16,Cc1cc(-n2nc(C)cc2C)n2nc(-c3ccc(Cl)cc3)c(C)c2n1,1170
17,Cc1ccc(-c2ccc(OCC(=O)NC(C)(C)C)cc2)cc1,1100
18,CCNC(=O)Nc1ccc2c(c1)CN(S(=O)(=O)c1ccc3c(c1)CCC3)CCO2,894

row,Structure (SMILES),RP-LC retention time [s]
1,CCCCNC(=O)c1c(OCC(C)C)cc(=O)n2c1CCCCC2,755
2,Cc1nc(NC(=O)c2ccc(Cl)cc2)nc2cc3c(cc12)OCO3,750
3,COC1CCN(CC2CCCCCN2C(=O)c2ccoc2)CC1 (stereo not given),596
4,O=c1ccc(-c2ccc(F)cc2)nn1CCc1nc(-c2ccc(Cl)cc2)no1,1060
5,Cc1cc(C(=O)N2CCCCC2c2nncn2CC2CC2)nn1C (stereo not given),629
6,CCC1CN(C(=O)N2CCC(C(=O)NCCCN3CCN(C)CC3)CC2)c2cc(C)ccc2O1 (stereo not given),617
7,Cc1oc2c(c1C(=O)Nc1ccc(F)c(F)c1)C1=NC(C)(C)CN1C=N2,655
8,CN(C)c1nccnc1OC1CCN(C(=O)c2ccn[nH]2)C1 (stereo not given),604
9,O=C(Cc1cccs1)NC1CCc2nnc(C3CC3)n2CC1 (stereo not given),598
10,O=C(c1cc(F)ccc1F)N1CCC(OCC2CC2)C1 (stereo not given),772
11,COc1ccc(-c2cc(=O)c3cc(Br)ccc3o2)cc1OC,912
12,COC[C@@H]1CN(Cc2ccccn2)C[C@H]1c1nc(C2CC2)no1,602
13,COCC(=O)NC1CCC12CCN(C(=O)C1CCOCC1)CC2 (stereo not given),603
14,CCc1nnc(-c2cc(NC(=O)c3ccnn3C)c(C)s2)o1,774
15,COc1ccc(-c2cc(=O)c3cc(OC(=O)c4ccncc4)ccc3o2)cc1,832
16,CCn1ccc(NC(=O)c2cc(C)ccc2C)n1,733
17,NC(=O)C1CCC(=O)N1C1CCN(C(=O)CCC2CCCC2)CC1 (stereo not given),566
18,Cc1ccc(-c2nnc(Cc3nc(-c4ccc(F)c(F)c4)no3)o2)cc1F,1110

# Second part, the molecule after the results:
row,RP-LC retention time [s],Structure (SMILES)
1,777,CC(C)c1nnc(-c2cccnc2N2CCN(C(=O)c3ccc4cc[nH]c4c3)CC2)o1
2,733,Cc1nc(N2CCN(c3ccccn3)CC2)c2c(C)c(C(=O)Nc3cc(F)ccc3C)sc2n1
3,735,CCN1c2ccccc2C(=O)NC12CCN(C(=O)Nc1ccc(OC)cc1)CC2
4,888,O=C1NC2(CCN(C(=O)c3cccc(Cl)c3)CC2)N=C1c1cccc(F)c1
5,802,CCc1nc(-c2ccc(S(=O)(=O)N3CCC(C(=O)N4CCc5ccccc54)CC3)cc2)no1
6,761,Cc1nn(C(C)C(=O)NCc2ccco2)c(=O)c2nn(-c3ccccc3)c(C)c12 (stereo not given)
7,623,Cc1sc(-n2cccc2)nc1C(=O)N1CCN(c2ccccn2)CC1
8,771,CN1C(=O)Cc2cc(S(=O)(=O)NCc3ccc4c(c3)CCN4C(=O)c3ccccc3)ccc21
9,1340,Cc1ccc(-c2nc(Nc3ccccc3F)sc2C)cc1
10,938,CCn1nc(CNC(=O)c2cc(C)cc(C)c2)c2ccccc21
11,1150,Cn1nccc1-c1cccc(-c2noc(C3(c4ccccc4)CC3)n2)c1
12,778,Cc1ccccc1-n1c(Cn2nc(-c3cccc(O)c3)c3c(N)ncnc32)nc2cccc(C)c2c1=O
13,707,CCCS(=O)(=O)N1CCc2c(c(CN(C(C)=O)c3ccccc3)nn2C)C1
14,1190,Cc1ccc(CSc2nnc(-c3ccccc3Cl)o2)cc1
15,881,O=C(NCCCN1CCCC1=O)c1csc(N2CCN(c3ccc(Cl)cc3)CC2)n1
16,1060,Cc1ccccc1Nc1c(-c2ccc(Br)cc2)nc2cnccn12
17,557,CCc1nccn1Cc1noc(-c2cccc(OC)c2)n1
18,718,O=C(Cc1ccsc1)N1CCC[C@H]1c1nc(-c2ccccc2)n[nH]1
19,1150,O=C(NCc1ccccc1F)C1CCCN(c2nc3ccccc3n(Cc3ccccc3)c2=O)C1 (stereo not given)
20,780,Cc1ccc(NC(=O)Cn2nc(N3CCOCC3)c3ccccc3c2=O)cc1Cl
21,812,Cn1nc(C(=O)OCc2cc(-c3ccc(Cl)cc3)on2)ccc1=O
22,1040,O=C(NCC1CCCCC1)C1CCCN(c2nccn3nc(-c4ccccc4Cl)cc23)C1 (stereo not given)
23,731,CCC(=O)Nc1ccc(-n2cnc(C(=O)NC3CCCCC3)c2)nc1
24,1040,O=C(NCc1cccc(C(F)(F)F)c1)C1CCCN(c2nccnc2Oc2ccccc2)C1 (stereo not given)
25,868,COC(=O)Cn1c(=O)c2c(nc3n2CCCN3c2ccc(Cl)cc2)n(C)c1=O
26,998,Cc1ccc(CSc2nnc3c(S(=O)(=O)N4CCN(c5ccc(F)cc5)CC4)cccn23)cc1
27,622,COc1ccc(OC)c(-c2ccc(=O)n(Cc3ccccn3)n2)c1

row,RP-LC retention time [s],Structure (SMILES)
1,1010,O=C(Nc1ccc(F)cc1)N1CCc2nc(-c3ccc(Cl)cc3)ncc2C1
2,1110,COc1ccc(S(=O)(=O)N2CCCC(C(=O)Nc3ccc(Br)cc3)C2)cc1C (stereo not given)
3,949,CCOc1ccc(-c2csc(Nc3ccc(C)cn3)n2)cc1
4,697,CN1C(=O)c2cc(C(=O)NCc3ccccc3F)nn2CC1(C)C(=O)NCc1ccccc1 (stereo not given)
5,882,COCCNC(=O)c1ccc(-c2nc(CSc3ccccc3)c(C)o2)cc1
6,710,Cc1ccc(CNC(=O)Cn2cnc3nc(N4CCCC(C(=O)NC(C)C)C4)sc3c2=O)cc1 (stereo not given)
7,916,Cn1nc(C(=O)N2CCC3(CC2)N=C(c2ccc(Br)cc2)NO3)c2ccccc21
8,1170,CCn1nccc1-c1cccc(-c2noc(C3CCN(S(=O)(=O)c4ccc(C)cc4)CC3)n2)c1
9,1130,Cc1cc(C)cc(-n2ccn(Cc3nc(-c4ccc(C(C)(C)C)cc4)no3)c(=O)c2=O)c1
10,932,O=C(NCc1ccc(-c2noc(-c3cc(F)ccc3F)n2)s1)C1CC1
11,1260,O=C(Nc1cccc(Br)c1)C1CCCN(c2ncc(-c3cccc(F)c3)cn2)C1 (stereo not given)
12,612,O=C(Cc1cccs1)N1CCc2[nH]cnc2C1c1ccccc1 (stereo not given)
13,918,COc1ccc(OC)c(S(=O)(=O)N2CCC(n3cnc4c(C)cccc4c3=O)CC2)c1
14,642,CC1CCCN(CCCNC(=O)c2nnc(-c3ccc(S(=O)(=O)N4CCCC4)cc3)o2)C1 (stereo not given)
15,855,O=C(Cn1cccc(-c2nc(-c3ccc(Cl)cc3)no2)c1=O)N1CCCCC1
16,766,COCCN1C(=O)Cc2ccccc2C1C(=O)NCc1cccc(Cl)c1 (stereo not given)
17,913,Cc1ccc(S(=O)(=O)N2CCC(C(=O)NCCc3csc(-c4cccs4)n3)CC2)cc1
18,618,Cn1cnc(S(=O)(=O)N2CCC(Cc3nncn3Cc3ccccc3)CC2)c1
19,665,Cn1ncc2c3ccccc3n(CCCC(=O)NCCCN3CCCC3=O)c2c1=O
20,1200,COc1ccc(-c2csc(NC(=O)COc3ccc(Cl)c(Cl)c3)n2)cc1
21,1050,Cn1nccc1-c1cccc(-c2noc(-c3ccnc(Cl)c3)n2)c1
22,827,Cc1ncc(-c2nc(-c3ccccc3)cs2)c(=O)n1CC(=O)N1CCCC1
23,789,O=C(Cn1ncc2c(c1=O)N(CC1CC1)C(=O)CS2)NCc1ccccc1Cl
24,576,Cc1cc(N2CCN(C)CC2)nc2ccc(NC(=S)NCc3cccs3)cc12
25,735,Cc1ccc2nc(-c3ccc(C)c(NC(=O)C4CCCCC4)c3)[nH]c2c1
26,885,O=C(c1ccc(-c2ccc3c(c2)CCN3S(=O)(=O)c2ccccc2)cc1)N1CCOCC1
27,822,O=C(Nc1cnc(N2CCCCCC2)nc1)c1ccsc1
